Experimental data as given in the supplement of paper PMC11208160.
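Also: IS621 bridge recombinase in Escherichia coli cells against a fixed T5 target plasmid.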

Assay: recombinant UMI read abundance after kanamycin selection (control-corrected) (log10(CPM+1)); higher = more efficient recombination; extreme values may be limits of the assay; sequences stand for … in AGTGCAGAGAAAATCGGCCAGTTTTCTCTGCCTGCAGTCCGCATGCCGTGGGACCCCTTGGGTTCTAACCTGTTGCCTAGATTTATGCAGCGGACTGCCTTTCTCCCAAAGTGATAAACCGG…AGGTTGGTTTCACT; site = the 11-nt donor
How it was run: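 Sequenced counts of recombinant UMIs were turned into CPM, averaged across replicates and scaled with control-derived factors. The reported figure is log10(CPM+1). Those UMIs, each 12 nt long, tagged donor and donor-binding-loop pairs on a plasmid with a promoterless kanamycin gene, screened as a pool in Escherichia coli with IPTG (0.07 mM) plus kanamycin or without selection.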
With “GCCACGCCATGGACCGGTTTTCCCGGTAATCCGTATTTGTA (site GCCACTCCTTA)” the “recombinant UMI read abundance (log10)” value was 0. With “GCCACGCCATGGACCGGTTTTCCCGGTAATCCGTATTTGTA (site TCCACGCCTTA)” the “recombinant UMI read abundance (log10)” value was 0.00575. In the case of “CGATACACATGGACCGGTTTTCCCGGTAATCCGTATTTGCT (site CGATACACTAG)”, the “recombinant UMI read abundance (log10)” value is reported as 2.54. With “CCCTAGCCATGGACCGGTTTTCCCGGTAATCCGTATTTGCG (site CCCTAGCCTCG)” the “recombinant UMI read abundance (log10)” value was 0.0131. With “TCATACTCATGGACCGGTTTTCCCGGTAATCCGTATTTGCT (site TCATACTCTGG)” the “recombinant UMI read abundance (log10)” value was 0. For “AGGTAGACATGGACCGGTTTTCCCGGTAATCCGTATTTGCA (site AGGGAGACTTG)”, the “recombinant UMI read abundance (log10)” value was 0.688. For “CTGTAAACATGGACCGGTTTTCCCGGTAATCCGTATTTGCA (site CTGCAAACTTG)”, the “recombinant UMI read abundance (log10)” value was 0.604. With “TTTGCGACATGGACCGGTTTTCCCGGTAATCCGTATTTGCT (site TTTGCGACTAG)” the “recombinant UMI read abundance (log10)” value was 0.529. In the case of “GTGGAGGCATGGACCGGTTTTCCCGGTAATCCGTATTTGTT (site GTGGAGGCTCA)”, the “recombinant UMI read abundance (log10)” value is reported as 0.524. For “CGGGGACCATGGACCGGTTTTCCCGGTAATCCGTATTTGAT (site CGGGGACCTAT)”, the “recombinant UMI read abundance (log10)” value was 0. For “CTGCTCTCATGGACCGGTTTTCCCGGTAATCCGTATTTGTA (site CTTCTCTCTTA)”, the “recombinant UMI read abundance (log10)” value was 1.06. In the case of “CATGTAACATGGACCGGTTTTCCCGGTAATCCGTATTTGCT (site TATGTAACTAG)”, the “recombinant UMI read abundance (log10)” value is reported as 0.869. With “TTAACTGCATGGACCGGTTTTCCCGGTAATCCGTATTTGTG (site TTAGCTGCTCA)” the “recombinant UMI read abundance (log10)” value was 0.00337. In the case of “CTGATACCATGGACCGGTTTTCCCGGTAATCCGTATTTGCT (site CTGCTACCTAG)”, the “recombinant UMI read abundance (log10)” value is reported as 0. With “GATTCTCCATGGACCGGTTTTCCCGGTAATCCGTATTTGCT (site GATTATCCTAG)” the “recombinant UMI read abundance (log10)” value was 0. For “AGCCTAGCATGGACCGGTTTTCCCGGTAATCCGTATTTGTA (site AGCCTAGCTAA)”, the “recombinant UMI read abundance (log10)” value was 0.0136. For “CTGCTACCATGGACCGGTTTTCCCGGTAATCCGTATTTGCT (site CTGGTACCTAG)”, the “recombinant UMI read abundance (log10)” value was 0. With “GCACGACCATGGACCGGTTTTCCCGGTAATCCGTATTTGGG (site GCACGACCTCC)” the “recombinant UMI read abundance (log10)” value was 0.0133. With “AGGGATCCATGGACCGGTTTTCCCGGTAATCCGTATTTGTT (site CGGAATCCTAA)” the “recombinant UMI read abundance (log10)” value was 0. For “ACTAGAGCATGGACCGGTTTTCCCGGTAATCCGTATTTGAG (site ACTAGAACTCT)”, the “recombinant UMI read abundance (log10)” value was 1.52. With “TTAGCTGCATGGACCGGTTTTCCCGGTAATCCGTATTTGTA (site TTAGCTGCTCA)” the “recombinant UMI read abundance (log10)” value was 0.026. With “AGGACGACATGGACCGGTTTTCCCGGTAATCCGTATTTGCT (site AGGAAGACTTG)” the “recombinant UMI read abundance (log10)” value was 0. For “CCCGGTCCATGGACCGGTTTTCCCGGTAATCCGTATTTGCC (site CCCGGTCCTGG)”, the “recombinant UMI read abundance (log10)” value was 0. In the case of “TGCTAGGCATGGACCGGTTTTCCCGGTAATCCGTATTTGGT (site TGCTCGGCTAC)”, the “recombinant UMI read abundance (log10)” value is reported as 0.0253. For “CCCGGCCCATGGACCGGTTTTCCCGGTAATCCGTATTTGTT (site CGCGGCCCTAA)”, the “recombinant UMI read abundance (log10)” value was 0.00519. For “ATTCCTACATGGACCGGTTTTCCCGGTAATCCGTATTTGAC (site ATTCCTACTGT)”, the “recombinant UMI read abundance (log10)” value was 0.882. With “TAATGAACATGGACCGGTTTTCCCGGTAATCCGTATTTGGG (site TAATGATCTCC)” the “recombinant UMI read abundance (log10)” value was 0.399. In the case of “GCGAACACATGGACCGGTTTTCCCGGTAATCCGTATTTGCT (site GCGAAGACTAG)”, the “recombinant UMI read abundance (log10)” value is reported as 0. For “GAATTCCCATGGACCGGTTTTCCCGGTAATCCGTATTTGTA (site GAATTCCCTTA)”, the “recombinant UMI read abundance (log10)” value was 0.666. In the case of “CACTACACATGGACCGGTTTTCCCGGTAATCCGTATTTGCT (site CGCTACACTAG)”, the “recombinant UMI read abundance (log10)” value is reported as 0.729. In the case of “TGGCTAGCATGGACCGGTTTTCCCGGTAATCCGTATTTGAA (site TTGCTAGCTTT)”, the “recombinant UMI read abundance (log10)” value is reported as 0.00374. With “ATAGGGCCATGGACCGGTTTTCCCGGTAATCCGTATTTGAC (site ATATGGCCTGT)” the “recombinant UMI read abundance (log10)” value was 0. In the case of “GGTACACCATGGACCGGTTTTCCCGGTAATCCGTATTTGAC (site CGTACACCTGT)”, the “recombinant UMI read abundance (log10)” value is reported as 0. With “CGGCTACCATGGACCGGTTTTCCCGGTAATCCGTATTTGCT (site CAGCTACCTAG)” the “recombinant UMI read abundance (log10)” value was 0. With “AATCACGCATGGACCGGTTTTCCCGGTAATCCGTATTTGGG (site AAGCACGCTCC)” the “recombinant UMI read abundance (log10)” value was 0.0135. For “ACCTAGTCATGGACCGGTTTTCCCGGTAATCCGTATTTGGG (site ACCTAGCCTCC)”, the “recombinant UMI read abundance (log10)” value was 0.017. For “TCACCTTCATGGACCGGTTTTCCCGGTAATCCGTATTTGGT (site TCACCTTCTAC)”, the “recombinant UMI read abundance (log10)” value was 0.0163. With “AATTAAACATGGACCGGTTTTCCCGGTAATCCGTATTTGTA (site AATTAAACTTA)” the “recombinant UMI read abundance (log10)” value was 0.643.
